Values quoted from earlier work in publication PMC12308805, “Ultrahigh-Throughput Virtual Screening Strategies against PPI Targets: A Case Study of STAT Inhibitors” (Journal of Chemical Information and Modeling, 2025).
Square brackets hold non-standard residues; d marks the D form. Peptide text beside a SMILES is read from it. * marks the point of attachment. pY = N[C@@H](Cc1ccc(OP(=O)(O)O)cc1)C(=O)O; Cha = N[C@@H](CC1CCCCC1)C(=O)O; NHBn = c1ccc(CN*)cc1

Tested on: STAT3
Details: sheet 6QHD_actives_decoys, retrospective screening set for STAT3 SH2 domain (PDB 6QHD); decoys are presumed inactives, not tested; ref DUD-E; cited from earlier work

Row | Structure (SMILES) | Type
1 | CC(=C\C(=O)O)/C=C(\C)C[C@@H](C)CCCC[C@@H](O)[C@@H](CO)C(=O)OC[C@H]1O[C@@H](O)[C@@H](O)[C@@H](O)[C@H]1O [Decoy875] | Inactive (Decoy)
2 | CCCOc1cccc(C(=O)NC(=S)Nc2ccc(S(=O)(=O)Nc3cc(OC)ncn3)cc2)c1 [Decoy947] | Inactive (Decoy)
3 | O[C@@H](CNCCOc1ccccc1OCCNC[C@H](O)COc1cccc2[nH]c3ccccc3c12)COc1cccc2[nH]c3ccccc3c12 [Decoy878] | Inactive (Decoy)
4 | CC1(C)[C@]2(C(=O)NCCN(CCNC(=O)[C@]34CC[C@](C)(C(=O)C3)C4(C)C)CCNC(=O)[C@]34CC[C@](C)(C(=O)C3)C4(C)C)CC[C@@]1(C)C(=O)C2 [Decoy839] | Inactive (Decoy)
5 | CCOC(=O)c1[nH]c(C)c(C(=O)C2=C(O)C(=O)N(CCCn3ccnc3)[C@H]2c2cc(OC)c(OC)c(OC)c2)c1C [Decoy756] | Inactive (Decoy)
6 | CCOC(=O)c1ccc(NC(=O)C(=O)NCc2ccc(/C=C3/C(=O)N(c4ccc(C)c(Cl)c4)C(C)=C3C(=O)OC)o2)cc1 [Decoy845] | Inactive (Decoy)
7 | CC1=C/C(=C(\c2cc(C)c(O)c(CN(C)CC(=O)O)c2)c2ccccc2S(=O)(=O)O)C=C(CN(C)CC(=O)O)C1=O [Decoy767] | Inactive (Decoy)
8 | C=CCOc1ccc([C@H]2C(C(=O)c3ccc(S(=O)(=O)N(C)C)cc3)=C(O)C(=O)N2CCCN(C)C)cc1OC [Decoy790] | Inactive (Decoy)
9 | COc1cc(NC(=S)Nc2ccc(S(=O)(=O)/N=c3/cc(OC)nc(OC)[nH]3)cc2)cc(OC)c1 [Decoy884] | Inactive (Decoy)
10 | C=CCOC(=O)c1sc(NC(=O)[C@@H](CC)n2c(N)nnc2SCc2ccccc2Cl)nc1C [Decoy920] | Inactive (Decoy)
11 | CCC/C=C/[C@@H](C(=O)NCS(=O)(=O)c1ccc(C)cc1)N(Cc1ccco1)C(=O)c1c(O)cccc1O [Decoy942] | Inactive (Decoy)
12 | CC(C)(CC[C@@H](O)[C@@](C)(O)[C@H]1CC[C@@]2(O)C3=CC(=O)[C@H]4C[C@@H](O)[C@@H](O)C[C@]4(C)[C@@H]3CC[C@]12C)O[C@H]1O[C@@H](CO)[C@@H](O)[C@@H](O)[C@H]1O [Decoy905] | Inactive (Decoy)
13 | CCCCN(C)S(=O)(=O)c1ccc(C(=O)Nc2ccc(S(=O)(=O)Nc3nc(C)cc(C)n3)cc2)cc1 [Decoy757] | Inactive (Decoy)
14 | CC(C)CN(C(=O)CN(C)C(=O)Cc1ccccc1Cl)c1c(N)n(CC(C)C)c(=O)[nH]c1=O [Decoy755] | Inactive (Decoy)
15 | CCCCN(CC)S(=O)(=O)c1cc([N+](=O)[O-])ccc1NN/C=C1/C(=O)N=C(O)NC1=O [Decoy950] | Inactive (Decoy)
16 | CO[C@H]1C[C@H](O[C@H]2CC[C@]3(C=O)[C@H]4CC[C@]5(C)[C@@H](C6=CC(=O)OC6)CC[C@]5(O)[C@@H]4CC[C@]3(O)C2)O[C@H](C)[C@H]1O[C@H]1O[C@H](CO)[C@@H](O)[C@H](O)[C@H]1O [Decoy943] | Inactive (Decoy)
17 | CCOc1ccccc1NC(=O)CSC1=C(C#N)[C@H](c2ccco2)C(/C(O)=N/c2ccc(S(N)(=O)=O)cc2)=C(C)N1 [Decoy831] | Inactive (Decoy)
18 | CCCCCCCCCCCCCCCCN(C)S(=O)(=O)c1ccc2sc(NNS(=O)(=O)c3ccc(S(N)(=O)=O)cc3)[n+](C)c2c1 [Decoy748] | Inactive (Decoy)
19 | CC(=O)O[C@H]1[C@@H](O)[C@H](CO)O[C@H](O[C@@H](C/N=C/c2c(O)cc(O)c3ccccc23)[C@@H](CO)O[C@H](O)C/N=C/c2c(O)cc(O)c3ccccc23)[C@@H]1O [Decoy742] | Inactive (Decoy)
20 | CCOc1ccc(NC(=O)CCC(=O)NNC(=S)NC(=O)c2cc([N+](=O)[O-])cc([N+](=O)[O-])c2)cc1 [Decoy733] | Inactive (Decoy)
21 | COc1cc(CNC(=O)CSc2n[nH]c(N/N=C/c3cc(OC)c(O)cc3[N+](=O)[O-])n2)cc(OC)c1 [Decoy737] | Inactive (Decoy)
22 | CCOC(=O)CNC(=O)[C@H](c1ccc(OC)cc1)N(C(=O)c1snc(C(N)=O)c1N)c1cccc(C)c1 [Decoy735] | Inactive (Decoy)
23 | CC[C@@H](C)[C@H](O)C(=O)O[C@H](C(=O)O[C@H](C(=O)OC[C@@H](O)[C@@H](O)[C@@H](O)[C@@H](O)CO)[C@@H](C)CC)[C@@H](C)CC [Decoy862] | Inactive (Decoy)

Same assay, conditions: sheet 6QHD_actives_decoys; known STAT3 actives of the retrospective screening set; ref ChEMBL / literature; cited from earlier work

Row | Structure (SMILES) | Type (known STAT3 active)
24 | CC(C)C[C@H](NC(=O)/C=C/c1ccc(OP(=O)(O)O)cc1)C(=O)N1C[C@H]2C[C@H]2[C@H]1C(=O)N[C@@H](CCC(N)=O)[C@@H](C)OCc1ccccc1 [CHEMBL573443] | Active
25 | CC(=O)N[C@@H](Cc1ccc(OP(=O)(O)O)cc1)C(=O)N[C@@H](CC(C)C)C(=O)N1CCC[C@H]1C(=O)N[C@@H](CCC(N)=O)C(=O)NCc1ccccc1 [CHEMBL194855] (Ac-[pY]LPQ-NHBn) | Active
26 | CC(=O)N[C@@H](Cc1ccc(OP(=O)(O)O)cc1)C(=O)N[C@@H](CC1CCCCC1)C(=O)N1CCC[C@H]1C(=O)N[C@@H](CCC(N)=O)C(=O)N[C@H](C(N)=O)[C@@H](C)O [CHEMBL371871] (Ac-[pY][Cha]PQT-NH2) | Active
27 | CC(C)C[C@H](NC(=O)/C=C/c1ccc(OP(=O)(O)O)cc1)C(=O)N1C[C@H]2C[C@H]2[C@H]1C(=O)N[C@@H](CCC(N)=O)C(C)C [CHEMBL573930] | Active

Same assay, conditions: sheet 6QHD_actives_decoys; retrospective screening set for STAT3 SH2 domain (PDB 6QHD); […]; ref DUD-E; cited from earlier work

Row | Structure (SMILES) | Type
28 | CCN1C(=O)[C@@](C)(C(=O)Nc2ccc(S(=O)(=O)Nc3nccs3)cc2)Oc2ccccc21 [Decoy608] | Inactive (Decoy)
29 | Cc1ccc(N2C(=O)NC(=O)/C(=C\c3cc(C)n(-c4cc(C(=O)O)cc(C(=O)O)c4)c3C)C2=O)cc1 [Decoy670] | Inactive (Decoy)
30 | CC(=O)Nc1ccc(S(=O)(=O)N[C@@]2(C(F)(F)F)C(=O)N=C3C2=C(O)N=C(S)N3Cc2ccco2)cc1 [Decoy697] | Inactive (Decoy)

Same assay, conditions: sheet 6QHD_actives_decoys; retrospective screening set for STAT3 SH2 domain (PDB 6QHD); decoys generated with DUD-E and presumed inactive, not tested; ref DUD-E; cited from earlier work

Row | Structure (SMILES) | Type
31 | CCOC(=O)c1c(NC(=O)c2ccc([N+](=O)[O-])cc2)sc2c(OCCN(CC)CC)c(Br)ccc12 [Decoy671] | Inactive (Decoy)
32 | CCN(CC)S(=O)(=O)c1ccc(NC(=O)CSc2nnc(N/N=C/c3cccc(O)c3)n2N)cc1 [Decoy398] | Inactive (Decoy)
33 | C=C(CCO)C(=O)OC[C@H]1OC[C@@H](OC(=O)C(=C)CCO[C@@H]2O[C@H](COC(=O)C(=C)CCO)[C@@H](O)[C@H](O)[C@H]2O)[C@@H](O)[C@H]1O [Decoy492] | Inactive (Decoy)
34 | C=C(CO[C@H]1[C@H](O)[C@H](CO)O[C@@H](OCC#Cc2ccc(O)c(C(=O)OC)c2)[C@H]1NC(C)=O)C(=O)OCC [Decoy507] | Inactive (Decoy)
35 | C=CCOC(=O)c1sc(NC(=O)[C@@H](C)n2c(N)nnc2SCc2ccccc2Cl)nc1C [Decoy562] | Inactive (Decoy)
36 | CCOC(=O)C1=C(C)NC(=O)N[C@H]1c1cc(OC)c(OCC(=O)Nc2ccc(C)cc2)cc1Br [Decoy705] | Inactive (Decoy)
37 | CC(=O)O[C@@H]1[C@H](O)[C@H](CO)O[C@H](OCC2=CO[C@H](OC(=O)CC(C)C)[C@H]3[C@H]2C[C@H](OC(C)=O)[C@@]3(C)O)[C@@H]1OC(C)=O [Decoy569] | Inactive (Decoy)
38 | CCCCCOc1ccc([C@@H]2C(C(=O)c3c(C)nc4ccccn34)=C(O)C(=O)N2CCN(C)C)cc1OCC [Decoy423] | Inactive (Decoy)
39 | COC(=O)c1ccc(S(=O)(=O)N(CCCO)Cc2cc3cc4c(cc3[nH]c2=O)OCCO4)cc1 [Decoy669] | Inactive (Decoy)
40 | COc1ccc(CCNc2ccc3nnc(CCNS(=O)(=O)c4ccc(C)cc4)n3n2)cc1OC [Decoy586] | Inactive (Decoy)
41 | CC(C)(CC(=O)O)CC(=O)N1Cc2nc[nH]c2C[C@H]1c1nc(-c2ccc(F)c(Cl)c2)no1 [Decoy417] | Inactive (Decoy)
42 | CC[C@H]1OC(=O)[C@H](C)[C@@H](O[C@@H]2C[C@@](C)(OC)[C@H](O)[C@H](C)O2)[C@H](C)[C@H](O[C@H]2O[C@@H](C)C[C@@H](N(C)C)[C@H]2O)[C@](C)(O)C[C@@H](C)/C(=N\OCOCCOC)[C@H](C)[C@@H](O)[C@]1(C)O [Decoy581] | Inactive (Decoy)
43 | COc1cc(NS(=O)(=O)c2ccc(NC(=S)NC(=O)/C=C/c3cccc4ccccc34)cc2)ncn1 [Decoy659] | Inactive (Decoy)
44 | COc1cc(C[C@H]2CO[C@H](c3ccc(O)c(OC)c3)[C@@H]2CO[C@H]2O[C@@H](CO)[C@@H](O)[C@@H](O)[C@H]2O)ccc1O [Decoy715] | Inactive (Decoy)
45 | COc1ccc(CCN2C(=O)[C@H]3[C@@H](C2=O)[C@]2(N[C@@H]3Cc3ccc(O)c(O)c3)C(=O)Nc3ccc(Cl)cc32)cc1OC [Decoy728] | Inactive (Decoy)
46 | COc1ccc(CCNC(=O)CN(c2ccc(F)cc2)S(=O)(=O)c2ccc(OC)c(OC)c2)cc1OC [Decoy713] | Inactive (Decoy)
47 | CC(=O)O[C@@H]1[C@@H](O)[C@@H](O[C@@H](C/N=C/c2ccc(O)c3ccccc23)[C@@H](CO)O[C@H](O)C/N=C/c2ccc(O)c3ccccc23)O[C@@H](CO)[C@H]1O [Decoy410] | Inactive (Decoy)
48 | CCOC(=O)C1=C(CNc2cc(S(=O)(=O)N(CC)CC)ccc2OC)NC(=O)N[C@H]1c1cc(C)ccc1C [Decoy395] | Inactive (Decoy)
49 | COc1ccc(C(=O)Nc2ccc(S(=O)(=O)c3ccc(NC(=O)c4ccc(OC)c(OC)c4)cc3)cc2)cc1OC [Decoy665] | Inactive (Decoy)
50 | Cc1ccc(NC(=O)CN(C)C(=O)[C@H](C)OC(=O)CNC(=O)c2ccc(Cl)c([N+](=O)[O-])c2)cc1 [Decoy457] | Inactive (Decoy)
51 | CC(=O)O[C@H]([C@H](OC(C)=O)[C@H](OC(C)=O)C(=O)NC1CCCCCC1)[C@H](OC(C)=O)C(=O)NC1CCCCCC1 [Decoy425] | Inactive (Decoy)
52 | CC(=O)N[C@@H]1[C@@H](O)[C@H](O[C@@H]2O[C@H](CO)[C@H](O)[C@H](O[C@@]3(C(=O)O)C[C@H](O)[C@@H](NC(C)=O)[C@H]([C@H](O)[C@H](O)CO)O3)[C@H]2O)[C@@H](CO)O[C@H]1O [Decoy636] | Inactive (Decoy)
53 | CCCC(=O)C1=C(N2CCN(C3=C(C(=O)CCC)C(O)=C(C(=O)OC)C(C)(C)C3)CC2)CC(C)(C)[C@H](C(=O)OC)C1=O [Decoy436] | Inactive (Decoy)
